Measurements reported in patent publication US8846909B2, “Bicyclic heteroaryl kinase inhibitors and methods of use” (University of Rochester, priority 2010, dated 2014).

Assays:
MLK3 [1] = target: T1, MLK3 (Homo sapiens, UniProt Q16584); assay: Radiometric filter plate MLK3 assay; type: biochemical; conditions: read-out: MK3 IC50; further: 2 µM cold ATP (Km)
T1 construct: purchased Dundee DU8313
Procedure: After a twenty minute incubation, the reactions were washed through filter plates and read on a scintillation counter. Results are shown in Table 10 below, in which +++ indicates ≦0.1 μM, ++ indicates >0.1 μM and ≦1 μM, and + indicates >1 μM.

[2] = Pharmacokinetic evaluation in mice (plasma and brain AUC); type: in vivo; set-up: unit not given here; conditions: CL57 BL/6 mice, single IV injection 10 mg/kg, brain homogenate
Procedure: Several compounds disclosed herein were evaluated in a standard murine pharmacokinetic model. […] Three mice in each group were used for blood and brain collection at each time point. […] The brain of each animal was collected after the final blood collection. The whole tissue was harvested, excised and rinsed by saline, dried by filter paper, and then placed into one tube per tissue per animal. All samples were stored at −20° C. until bioanalysis. Compound concentrations in plasma and brain homogenate were determined using a high performance liquid chromatography/mass spectrometry (HPLC/MS/MS) method (Agilent 1100 series HPLC, AB Inc. API4000 triple-quadrupole with an ESI interface and Analyst 1.4 software). Results in the form of area under the time-versus-concentration curve (AUC) are given below in Table 11.

[3] = tested on: primary rat hippocampal neurons and dorsal root ganglion neurons; conditions: cited from earlier work
MLK3 [4] = target: T2, MLK3 (Rattus norvegicus, UniProt Q66HA1); conditions: primary rat neurons; cited from earlier work
T2 construct: autophosphorylation of MLK3 in primary rat neurons; endogenous in cells; host or cells: primary rat neurons

[5] = tested on: in vivo model of HIV-1 infection; conditions: reversing microglial activation, restoring normal synaptic architecture; cited from earlier work

T1 sequence (Q16584 whole entry): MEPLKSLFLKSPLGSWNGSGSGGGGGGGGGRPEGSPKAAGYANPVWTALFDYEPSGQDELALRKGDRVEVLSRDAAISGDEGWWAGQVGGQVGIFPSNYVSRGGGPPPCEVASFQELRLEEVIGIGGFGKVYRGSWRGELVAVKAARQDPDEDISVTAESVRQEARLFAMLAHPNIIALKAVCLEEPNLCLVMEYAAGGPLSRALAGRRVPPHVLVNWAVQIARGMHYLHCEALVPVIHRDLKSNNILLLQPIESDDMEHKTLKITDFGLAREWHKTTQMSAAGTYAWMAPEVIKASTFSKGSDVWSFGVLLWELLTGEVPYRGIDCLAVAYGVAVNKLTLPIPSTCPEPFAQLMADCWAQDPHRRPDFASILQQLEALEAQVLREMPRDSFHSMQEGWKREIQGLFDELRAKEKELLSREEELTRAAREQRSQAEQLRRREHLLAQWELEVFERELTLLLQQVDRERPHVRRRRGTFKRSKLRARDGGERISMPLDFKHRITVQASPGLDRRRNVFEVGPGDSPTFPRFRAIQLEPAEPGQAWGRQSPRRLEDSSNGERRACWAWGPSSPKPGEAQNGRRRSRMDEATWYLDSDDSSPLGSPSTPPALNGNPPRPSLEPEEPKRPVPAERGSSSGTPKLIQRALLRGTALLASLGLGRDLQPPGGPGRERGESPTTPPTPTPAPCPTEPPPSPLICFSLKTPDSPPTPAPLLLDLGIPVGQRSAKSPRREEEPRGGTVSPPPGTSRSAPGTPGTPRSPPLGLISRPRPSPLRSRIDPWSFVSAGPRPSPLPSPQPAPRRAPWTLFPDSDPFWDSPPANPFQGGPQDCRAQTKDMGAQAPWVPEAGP
T2 sequence (Q66HA1 whole entry): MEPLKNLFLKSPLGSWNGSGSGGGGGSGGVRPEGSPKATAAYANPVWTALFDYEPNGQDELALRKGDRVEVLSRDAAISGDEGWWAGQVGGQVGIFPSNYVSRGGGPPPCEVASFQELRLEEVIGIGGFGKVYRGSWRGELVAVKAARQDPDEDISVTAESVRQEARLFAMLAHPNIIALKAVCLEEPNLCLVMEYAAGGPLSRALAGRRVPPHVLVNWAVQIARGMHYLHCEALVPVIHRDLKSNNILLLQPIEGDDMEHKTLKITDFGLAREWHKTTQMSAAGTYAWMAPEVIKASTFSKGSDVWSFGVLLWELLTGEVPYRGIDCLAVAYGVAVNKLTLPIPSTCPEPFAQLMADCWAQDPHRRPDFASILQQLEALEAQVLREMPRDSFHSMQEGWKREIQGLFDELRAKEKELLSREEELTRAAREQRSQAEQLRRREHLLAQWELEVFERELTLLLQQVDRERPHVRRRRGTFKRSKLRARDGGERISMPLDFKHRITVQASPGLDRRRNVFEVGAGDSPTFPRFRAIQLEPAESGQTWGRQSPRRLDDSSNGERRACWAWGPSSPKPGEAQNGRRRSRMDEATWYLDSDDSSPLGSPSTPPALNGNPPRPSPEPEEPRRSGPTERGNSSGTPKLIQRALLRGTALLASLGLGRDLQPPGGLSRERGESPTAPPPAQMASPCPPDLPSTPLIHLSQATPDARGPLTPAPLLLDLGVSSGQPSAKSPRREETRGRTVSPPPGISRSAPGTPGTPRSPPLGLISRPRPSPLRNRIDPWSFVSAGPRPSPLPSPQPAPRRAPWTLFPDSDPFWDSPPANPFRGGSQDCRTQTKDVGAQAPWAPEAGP

IC50 (MLK3 [1]) [nM] | AUC Brain [2] | SMILES | also measured
< 100 | + (+ indicates ≧500) | Nc1ncc(-c2cnc3[nH]cc(-c4ccc5[nH]ccc5c4)c3c2)cn1 [Example 9, 5-(3-(1H-indol-5-yl)-1H-pyrrolo[2,3-b]pyridin-5-yl)pyrimidin-2-amine] | 
 | + (+ indicates ≧500) | COc1cc(-c2cnc3[nH]cc(-c4ccc5[nH]ccc5c4)c3c2)cc(OC)c1OC [Example 1, 3-(1H-indol-5-yl)-5-(3,4,5-trimethoxyphenyl)-1H-pyrrolo[2,3-b]pyridine] | 
 |  | CCSCc1ccc2c(c1)c1c3c(c4c5cc(CSCC)ccc5n5c4c1n2[C@H]1C[C@](O)(C(=O)OC)[C@]5(C)O1)CNC3=O [CEP1347] | protection of neurons from lethal effects of HIV-1 gp120 [3]: can protect; Tat and gp120 induced autophosphorylation of MLK3 (MLK3 [4]): abolished; neuroprotection in in vivo model of HIV-1 infection [5]: neuroprotective
< 100 | − (− indicates <500) | COc1cc(-c2cnc3[nH]cc(-c4ccc(N)nc4)c3c2)cc(OC)c1OC [Example 18, 5-(5-(3,4,5-trimethoxyphenyl)-1H-pyrrolo[2,3-b]pyridin-3-yl)pyridin-2-amine] | 
< 100 | − (− indicates <500) | COc1cc(-c2cnc3[nH]cc(-c4cnc(N)nc4)c3c2)cc(OC)c1OC [Example 17, 5-(5-(3,4,5-trimethoxyphenyl)-1H-pyrrolo[2,3-b]pyridin-3-yl)pyrimidin-2-amine] | 
 | + (+ indicates ≧500) | CN1CCN(Cc2ccc(-c3cnc4[nH]cc(-c5ccc6[nH]ccc6c5)c4c3)cc2)CC1 [Example 32, 3-(1H-indol-5-yl)-5-(4-((4-methylpiperazin-1-yl)methyl)phenyl)-1H-pyrrolo[2,3-b]pyridine] | 
> 1000 |  | CN(C)c1ccc(-c2cnc3[nH]cc(-c4ccc(F)c(Cl)c4)c3c2)cn1 [Example 22, 5-(3-(3-chloro-4-fluorophenyl)-1H-pyrrolo[2,3-b]pyridin-5-yl)-N,N-dimethylpyridin-2-amine] | 
> 1000 |  | COc1cc(OC)cc(-c2cnc3[nH]c(=O)n(-c4ccc5[nH]ccc5c4)c3n2)c1 [Example 65, 6-(3,5-dimethoxyphenyl)-1-(1H-indol-5-yl)-1H-imidazo[4,5-b]pyrazin-2(3H)-one] | 
< 100 | − (− indicates <500) | Nc1ccc(-c2cnc3[nH]cc(-c4ccc5[nH]ccc5c4)c3c2)cn1 [Example 4, 5-(3-(1H-indol-5-yl)-1H-pyrrolo[2,3-b]pyridin-5-yl)pyridin-2-amine] | 
< 100 |  | CN1CCN(Cc2cccc(-c3cnc4[nH]cc(-c5ccc6[nH]ccc6c5)c4c3)c2)CC1=O [Example 143, 4-{3-[3-(1H-indol-5-yl)-1H-pyrrolo[2,3-b]pyridin-5-yl]-benzyl}-1-methyl-piperazin-2-one] | 
